These results are taken from US20080004272A1, “Compositions and methods for modulating gated ion channels” (PainCeptor Pharma Corporation, priority 2006, published 2008).

Usually IC50 stands for the concentration that inhibits the measured activity by half.

The target of test [1] is T1, ASIC1a (Homo sapiens, UniProt P78348).
T1 sequence (P78348 1-528): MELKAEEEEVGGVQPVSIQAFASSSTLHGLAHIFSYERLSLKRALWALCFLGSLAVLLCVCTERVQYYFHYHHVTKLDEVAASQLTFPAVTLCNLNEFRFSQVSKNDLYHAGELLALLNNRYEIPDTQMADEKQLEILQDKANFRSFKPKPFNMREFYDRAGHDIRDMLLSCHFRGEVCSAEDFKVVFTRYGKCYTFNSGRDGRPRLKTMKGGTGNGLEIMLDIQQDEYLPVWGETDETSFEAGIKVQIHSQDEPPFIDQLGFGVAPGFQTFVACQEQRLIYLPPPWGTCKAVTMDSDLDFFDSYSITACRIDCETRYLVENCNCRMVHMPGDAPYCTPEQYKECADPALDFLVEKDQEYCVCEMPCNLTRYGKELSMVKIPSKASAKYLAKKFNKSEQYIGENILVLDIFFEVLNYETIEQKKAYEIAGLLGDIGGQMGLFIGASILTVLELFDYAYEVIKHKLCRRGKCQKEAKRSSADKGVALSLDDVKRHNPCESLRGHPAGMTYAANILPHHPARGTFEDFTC
The test is described as follows: Two-electrode voltage clamp in Xenopus laevis oocytes (Xo), acid-induced currents. The test is classed as cell-based. On the set-up: expressed in transfected cells; host or cells: Xenopus laevis oocytes (nuclear microinjection of expression vector such as pcDNA3). As to conditions: Xenopus oocytes; for inhibition at 50 µM: read-out: % inh. at 50 μM (Xo); for inhibition at 100 µM: read-out: % inh. at 100 μM (Xo). Summed up: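 Defolliculated oocytes were nuclear-injected with channel cDNA and expressed for 2–4 days at 19 °C. Under two-electrode voltage clamp at room temperature, oocytes were superfused with pH 7.4 Ringer, and currents were evoked by switching to acidic MES Ringer (pH<7). Compound was present in both control and acidic solutions.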
For orientation: In two-electrode clamp one electrode senses voltage and the other passes current.

The target in test [2] is T1, ASIC1a. The test is described as follows: Calcium imaging of MES-induced calcium response (FLIPR). On the set-up: host or cells: HEK293. As to conditions: ASIC1a expressing HEK293 cells, MES-induced calcium response; read-out: IC50 (FLIPR). Type of test: cell-based.

For `CN1CCc2c(-c3ccccc3)ccc(NC(=O)CCCO)c2C1` [Compound 133], on ASIC1a [1], the inhibition at 50 µM was less than 25%. In addition, at ASIC1a [2], the IC50 was greater than 70 µM.

With `COC(=O)c1cc(-c2ccccc2)c2c(c1N)CN(C)CC2` [Compound 142], the inhibition at 50 µM on ASIC1a [1] is less than 25%. Moreover, the IC50 on ASIC1a [2] is greater than 70 µM.

As to `CN1CCc2c(-c3ccccc3)cc3c(c2C1)NC(=O)/C3=C/c1cccc(C(=O)O)c1` [Compound 84], at ASIC1a [1], the inhibition at 50 µM was less than 25%. Also, on ASIC1a [2], the IC50 is greater than 70 µM.

In the case of `CN1CCc2c(-c3ccccc3)ccc(C#N)c2C1` [Compound 178], the inhibition at 50 µM on ASIC1a [1] was less than 25%. Besides, on ASIC1a [2], the half-inhibitory concentration (IC50) was greater than 70 µM.

Consider `CC(=O)Nc1c(N)cc(-c2ccccc2)c2c1CN(C)CC2` [Compound 156], for which, at ASIC1a [1], the inhibition at 50 µM was less than 25%. Also, the half-inhibitory concentration (IC50) at ASIC1a [2] was greater than 70 µM.

Consider `CN1CCc2c(-c3ccccc3)cc3c(c2C1)NC(=O)/C3=C/C(=O)O` [Compound 91], for which the inhibition at 50 µM on ASIC1a [1] was less than 25%. For the same compound, at ASIC1a [2], the IC50 was greater than 70 µM.

`CN1CCc2c(-c3ccccc3)cc3c(c2C1)NC(=O)/C3=C1\CCCN1C` [Compound 93]: on ASIC1a [1], the inhibition at 50 µM was less than 25%. Besides, on ASIC1a [2], the 50% inhibitory concentration (IC50) was greater than 70 µM.

Regarding `CN1CCc2c(-c3ccccc3)cc3c(c2C1)NC(=O)/C3=N/N` [Compound 102], the inhibition at 50 µM on ASIC1a [1] is greater than 50%. On ASIC1a [2], the IC50 lay in the range of 20 to 40 µM.

Regarding `CN1CCc2c(-c3ccccc3)cc3c(=O)[nH]c(=O)[nH]c3c2C1` [Compound 98], at ASIC1a [1], the inhibition at 50 µM lay within 20 to 40%. In addition, the IC50 on ASIC1a [2] was greater than 70 µM.

Take `CCOC(=O)N1CCc2c(Br)ccc([N+](=O)[O-])c2C1` [Compound 157]: the inhibition at 100 µM on ASIC1a [1] is greater than 50%. For the same compound, at ASIC1a [2], the IC50 is greater than 70 µM.

As to `CC(C)(C)OC(=O)N1CCc2c(-c3ccccc3)ccc(C(N)=O)c2C1` [Compound 181], the inhibition at 50 µM on ASIC1a [1] was less than 25%. The IC50 at ASIC1a [2] is greater than 70 µM.

As for `CC(=O)Nc1c(C(=O)O)cc(-c2ccccc2)c2c1CN(C)CC2` [Compound 144], on ASIC1a [1], the inhibition at 50 µM was less than 25%. The 50% inhibitory concentration (IC50) at ASIC1a [2] was greater than 70 µM.

As for `CN1CCc2c(-c3ccccc3)ccc(Br)c2C1` [Compound 172], on ASIC1a [1], the inhibition at 50 µM is less than 25%. Further, on ASIC1a [2], the IC50 was 50 to 70 µM.

Consider `CCOC(=O)/C=N\c1ccc(-c2ccccc2)c2c1CN(C)CC2` [Compound 124], for which the inhibition at 50 µM on ASIC1a [1] was less than 25%. On ASIC1a [2], the IC50 is greater than 70 µM.

`CN1CCc2c(-c3ccccc3)cc3c(c2C1)NC(=O)/C3=C/c1ccccc1C(=O)O` [Compound 82]: the inhibition at 50 µM on ASIC1a [1] is less than 25%. Further, the IC50 at ASIC1a [2] was greater than 70 µM.

In the case of `CN1CCc2c(-c3ccccc3)ccc(NC(=O)OC(C)(C)C)c2C1` [Compound 129], at ASIC1a [1], the inhibition at 50 µM was less than 25%. Also, the IC50 at ASIC1a [2] is 50 to 70 µM.

For the compound `C/C=C1/C(=O)Nc2c1cc(-c1ccccc1)c1c2CN(C)CC1` [Compound 89], on ASIC1a [1], the inhibition at 50 µM was less than 25%. The IC50 on ASIC1a [2] is greater than 70 µM.

Take `CN1CCc2c(-c3ccccc3)cc3c(c2C1)NC(=O)/C3=C/c1ccccc1` [Compound 87]: the inhibition at 50 µM at ASIC1a [1] is less than 25%. Further, the IC50 on ASIC1a [2] is greater than 70 µM.

For `CN1CCc2c(-c3ccccc3)cc3c(c2C1)NC(=O)/C3=N/NC(N)=S` [Compound 104], the inhibition at 50 µM at ASIC1a [1] was 30 to 50%. Further, the IC50 on ASIC1a [2] was greater than 70 µM.

Consider `CN1CCc2c(-c3ccccc3)cc3c(c2C1)NC(=O)/C3=C/c1ccc(C(=O)O)cc1` [Compound 83], for which the inhibition at 50 µM on ASIC1a [1] is less than 25%. The IC50 on ASIC1a [2] was greater than 70 µM.

As to `CN1CCc2c(-c3ccccc3)cc(C#N)c(NC(=O)OC(C)(C)C)c2C1` [Compound 130], the inhibition at 50 µM on ASIC1a [1] is less than 25%. Besides, at ASIC1a [2], the IC50 is greater than 70 µM.

Take `CCOC(=O)CNCc1ccc(-c2ccccc2)c2c1CN(C(=O)OCC)CC2` [Compound 121]: the inhibition at 50 µM at ASIC1a [1] is less than 25%. In addition, on ASIC1a [2], the half-inhibitory concentration (IC50) was greater than 70 µM.

For `CCOC(=O)CN(C(C)=O)c1ccc(-c2ccccc2)c2c1CN(C(=O)OCC)CC2` [Compound 139], on ASIC1a [1], the inhibition at 50 µM is less than 25%. Besides, at ASIC1a [2], the IC50 lay within 50 to 70 µM.

With `CN1CCc2c(-c3ccccc3)cc3c(c2C1)NC(=O)C31OCCO1` [Compound 76], the inhibition at 50 µM at ASIC1a [1] was less than 25%. Besides, at ASIC1a [2], the IC50 was in the range of 20 to 40 µM.

For `CO/N=C1/C(=O)Nc2c1cc(-c1cc(F)ccc1OC)c1c2CN(C)CC1` [Compound 24], at ASIC1a [1], the inhibition at 50 µM lay in the range of 40 to 60%. For the same compound, on ASIC1a [2], the IC50 lay in the range of 20 to 30 µM.

In the case of `CN1CCc2c(-c3ccccc3)cc3c(c2C1)NC(=O)/C3=C/c1ccccn1` [Compound 90], on ASIC1a [1], the inhibition at 50 µM was less than 25%. Besides, the IC50 at ASIC1a [2] is greater than 70 µM.

With `CN1CCc2c(-c3ccccc3)cc3[nH]c(=O)[nH]c3c2C1` [Compound 99], the inhibition at 50 µM on ASIC1a [1] was less than 25%. Besides, at ASIC1a [2], the concentration for half-maximal inhibition (IC50) was greater than 70 µM.

Regarding `CN1CCc2c(-c3ccccc3)cc3c(c2C1)NC(=O)/C3=C/c1ccccc1O` [Compound 86], at ASIC1a [1], the inhibition at 50 µM is less than 25%. Also, the 50% inhibitory concentration (IC50) at ASIC1a [2] is greater than 70 µM.

Take `CN1CCc2c(-c3ccccc3)cc(C(=O)O)c(N)c2C1` [Compound 141]: at ASIC1a [1], the inhibition at 50 µM is less than 25%. Further, the IC50 on ASIC1a [2] was greater than 70 µM.

With `CC(C)(C)OC(=O)N1CCc2c(-c3ccccc3)ccc(C(=O)O)c2C1` [Compound 182], the inhibition at 50 µM at ASIC1a [1] was less than 25%. The IC50 on ASIC1a [2] is greater than 70 µM.

For `CCOC(=O)N1CCc2c(-c3ccccc3)cc(C(=O)CCl)c(N)c2C1` [Compound 149], the inhibition at 50 µM on ASIC1a [1] was less than 25%. Also, the concentration for half-maximal inhibition (IC50) at ASIC1a [2] was greater than 70 µM.

Take `COC(=O)c1cc(-c2ccccc2)c2c(c1C(=O)OC)CN(C)CC2` [Compound 180]: the inhibition at 50 µM on ASIC1a [1] was less than 25%. Further, the IC50 at ASIC1a [2] is greater than 70 µM.

With `CCOC(=O)CNCc1ccc(-c2ccccc2)c2c1CN(C)CC2` [Compound 118], the inhibition at 50 µM on ASIC1a [1] was less than 25%. In addition, at ASIC1a [2], the IC50 is greater than 70 µM.

Consider `CCOC(=O)C(=O)Nc1ccc(-c2ccccc2)c2c1CN(C(=O)OCC)CC2` [Compound 125], for which, on ASIC1a [1], the inhibition at 50 µM was less than 25%. In addition, on ASIC1a [2], the IC50 was greater than 70 µM.

As to `CN1CCc2c(-c3ccccc3)ccc(NCCO)c2C1` [Compound 143], the inhibition at 50 µM at ASIC1a [1] is less than 25%. Also, the 50% inhibitory concentration (IC50) on ASIC1a [2] was greater than 70 µM.

Take `CCOC(=O)N1CCc2c(Br)ccc(N)c2C1` [Compound 160]: the inhibition at 100 µM on ASIC1a [1] fell in the range of 30 to 50%. Also, the IC50 at ASIC1a [2] was greater than 70 µM.

Turning to `CCOC(=O)N1CCc2c(Br)ccc(NCC(=O)OC)c2C1` [Compound 158], the inhibition at 50 µM on ASIC1a [1] is less than 25%. Also, the IC50 at ASIC1a [2] is greater than 70 µM.

Take `Nc1ccc(-c2ccccc2)c2ccncc12` [Compound 136]: the inhibition at 50 µM on ASIC1a [1] is less than 25%. At ASIC1a [2], the half-inhibitory concentration (IC50) is greater than 70 µM.

In the case of `CN1CCc2c(-c3ccccc3)ccc(NC(=O)CCC(=O)O)c2C1` [Compound 134], the inhibition at 50 µM on ASIC1a [1] is less than 25%. The concentration for half-maximal inhibition (IC50) on ASIC1a [2] was greater than 70 µM.

`CCOC(=O)CNc1ccc(-c2ccccc2)c2c1CN(C(=O)OCC)CC2` [Compound 140]: the inhibition at 50 µM at ASIC1a [1] is less than 25%. In addition, the IC50 on ASIC1a [2] is greater than 70 µM.

For `CCOC(=O)CNc1ccc(-c2ccccc2)c2c1CN(C)CC2` [Compound 126], the inhibition at 50 µM on ASIC1a [1] is less than 25%. Moreover, the IC50 on ASIC1a [2] lay in the range of 20 to 40 µM.

On to `CCOC(=O)/C=C1/C(=O)Nc2c1cc(-c1ccccc1)c1c2CN(C)CC1` [Compound 92], for which the inhibition at 50 µM on ASIC1a [1] was less than 25%. For the same compound, the IC50 on ASIC1a [2] is greater than 70 µM.

Consider `CN1CCc2c(-c3ccccc3)cc3c(c2C1)C(=O)N(N)C3=O` [Compound 80], for which the inhibition at 50 µM on ASIC1a [1] was less than 25%. For the same compound, the IC50 at ASIC1a [2] is greater than 70 µM.

Consider `CN1CCc2c(-c3ccccc3)cc3c(c2C1)NC(=O)/C3=C/c1ccc(O)cc1` [Compound 88], for which the inhibition at 50 µM at ASIC1a [1] was less than 25%. Moreover, the IC50 at ASIC1a [2] is greater than 70 µM.
